Laboratory results as given in patent US20250382274A1, “COMPOSITIONS AND METHODS FOR THE TREATMENT OF PARKINSON'S AND GAUCHER DISEASE” (CHILDREN'S HOSPITAL MEDICAL CENTER, priority 2024, published 2025).
Substitutions are numbered along the chain they refer to.

Tests used:
[1] = target: T1, GCase (purified enzyme, Velaglucerase alfa, VPRIV) (Homo sapiens, UniProt P04062); assay: GCase AC50 enzyme activity assay; type: biochemical; conditions: pH 5.6, 4-MuGlu substrate, compounds 0-40 μM
T1 construct: purchased Shire Human Genetic Therapies, Cambridge, MA
T1 sequence (P04062 40-536): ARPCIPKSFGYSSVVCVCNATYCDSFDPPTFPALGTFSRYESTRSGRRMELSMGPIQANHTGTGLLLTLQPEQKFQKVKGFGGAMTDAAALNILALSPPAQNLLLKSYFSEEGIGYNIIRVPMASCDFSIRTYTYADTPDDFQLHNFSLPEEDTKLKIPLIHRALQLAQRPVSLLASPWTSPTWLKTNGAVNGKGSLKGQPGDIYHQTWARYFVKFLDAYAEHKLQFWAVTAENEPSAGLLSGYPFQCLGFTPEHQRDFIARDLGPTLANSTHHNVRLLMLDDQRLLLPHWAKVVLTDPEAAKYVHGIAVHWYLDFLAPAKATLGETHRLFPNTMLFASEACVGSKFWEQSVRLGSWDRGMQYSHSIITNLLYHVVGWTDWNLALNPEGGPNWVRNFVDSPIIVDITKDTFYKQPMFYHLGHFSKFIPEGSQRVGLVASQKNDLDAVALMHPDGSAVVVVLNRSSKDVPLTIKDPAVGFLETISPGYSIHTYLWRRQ
Procedure: An in vitro enzyme assay was performed through a dose response curve of Compounds (0-40 μM) with purified enzyme (Velaglucerase alfa, VPRIV®, Shire Human Genetic Therapies, Cambridge, MA) in citric phosphate [0.025 mM] buffer (pH 5.6) where 4-MuGlu [4 mM] was the substrate. Compounds were pre-incubated with the enzyme for 40 minutes at room temperature prior to substrate addition, and then incubated at 37° C. for 1 hour. AC50 represents the concentration of a Compound that produces 50% of its maximal response in the in vitro GCase activity assay.
(§1) GCase activities were determined fluorometrically with 4-MuGlu. The relative fluorescence unit (RFU) of 4-MuGlu standard curve is generated with the plate reader (M5, Molecular Devise) as 1 n mole=56500 RFU. The human mutant Gaucher fibroblasts were purchased from Coriell Institute (Camden, NJ): N370/ΔGG (Cat #: GM00852) and L444P/L444P (cat #: GM00877)

[2] = target: T2, GCase in healthy human fibroblasts (Homo sapiens, UniProt P04062); assay: EC50 cell-based assay for GCase, healthy human fibroblasts (GCase cell); conditions: 5 days compound treatment (0-20 μM)
T2 construct: Healthy human fibroblasts (GCase cell); endogenous in cells; host or cells: healthy human fibroblasts
T2 sequence (P04062 40-536): T1 sequence (P04062 40-536)
Procedure: (§2) In cell assays, GCase activity measurements were carried out on harvested cell pellets on the 5th day of Compound treatment. Healthy human fibroblasts (GCase cell), mutant N370/ΔGG (GCase N370S) or L444P/L444P (GCase L444P) were incubated with the Compound (0-20 μM) for 5 days with 15% fetal bovine serum (FBS) in Dulbecco's Modified Eagle Medium (DMEM) in 100 mm culture dishes. Fresh Medium with Compound were replaced every other day. On the 5th day of Compound treatment, harvested cell pellets were lysed with 1% Na-taurocholate (Tc) and 1% Triton X-100 (Tx), and mixed with the reaction buffer which contained 0.025 mM Citric phosphate buffer (pH 5.6), 0.25% Tc/Tx and 4 mM 4-MuGlu, then incubated at 37° C. for 1 hour. EC50 represents the concentration of a Compound that produces 50% of its maximal response in the cell-based GCase activity assay.
as §1

[3] = target: T3, GCase N370S (N370/ΔGG human mutant Gaucher fibroblasts) (Homo sapiens, UniProt P04062, N409S); assay: EC50 cell-based assay for GCase, mutant N370/ΔGG fibroblasts (GCase N370S); conditions: 5 days compound treatment (0-20 μM)
T3 construct: The human mutant Gaucher fibroblasts were purchased from Coriell Institute; host or cells: human Gaucher fibroblasts N370/ΔGG
T3 sequence (P04062 40-536 N409S): T1 sequence (P04062 40-536) with N370S
Procedure: as §2, §1

[4] = target: T4, GCase L444P (L444P/L444P human mutant Gaucher fibroblasts) (Homo sapiens, UniProt P04062, L483P); assay: EC50 cell-based assay for GCase, mutant L444P/L444P fibroblasts (GCase L444P); conditions: 5 days compound treatment (0-20 μM)
T4 construct: The human mutant Gaucher fibroblasts were purchased from Coriell Institute; host or cells: human Gaucher fibroblasts L444P/L444P
T4 sequence (P04062 40-536 L483P): T1 sequence (P04062 40-536) with L444P
Procedure: as §2, §1

AC50 [1]: < 10 µM | EC50 [2]: < 10 µM | EC50 [3]: < 10 µM | EC50 [4]: < 10 µM
Compound: CN1CCC(NC(=O)C(C)(C)Oc2ccccc2C(=O)NCC2CCCO2)CC1 (stereo not shown) [Compound 37, 2-(2-(1-methylpiperidin-4-ylcarbamoyl)propan-2-yloxy)-N-((tetrahydrofuran-2-yl)methyl)benzamide]
